{
  "source": "patent US20060143838A1",
  "about": "“Herbal dye and process of preparation thereof” (COUNCIL OF SCIENTIFIC & INDUSTRIAL RESEARCH, priority 2004, published 2006)",
  "key": {"Aspergillus niger": {"tested_on": "Aspergillus niger", "test": "Antifungal activity of herbal black dye (disc, inhibition zone)", "assay_type": "cell-based", "conditions": "25 mg/disc"}, "Candida albicans": {"tested_on": "Candida albicans", "test": "Antifungal activity of herbal black dye (disc, inhibition zone)", "assay_type": "cell-based", "conditions": "25 mg/disc"}},
  "data": [
    {"smiles": "COC1=CC(=O)C[C@@H](C)[C@]12Oc1c(Cl)c(OC)cc(OC)c1C2=O", "note": "[Griseofulvin]", "values": [
      {"measurement": "inhibition zone", "setting": "Aspergillus niger", "result": 10, "unit": "mm"},
      {"measurement": "inhibition zone", "setting": "Candida albicans", "result": 8, "unit": "mm"}
    ]}
  ]
}
